Source: patent US7872015B2, “Methods involving PDE4, compositions, and the screening thereof, for the treatment of degenerative ocular pathologies” (Exonhit Therapeutics SA, priority 2003, dated 2011)

Tests used:
[1] = biological target: T1, PBR (Homo sapiens, UniProt P30536); assay: Mitochondrial-specific rhodamine 1,2,3 fluorescence in HeLa cells expressing the PBR; type: cell-based
T1 construct: endogenous in cells; host or cells: HeLa cells
Source text: The PBR is situated between the inner and outer mitochondrial membrane. It forms part of the transition pore complex, which participates in regulating mitochondrial flux by opening the mitochondrial pore. There exist molecules which display high affinity for PBR, particularly Ro5-4864 and PK11195.
By monitoring mitochondrial-specific fluorescence of rhodamine 1,2,3, the effects of PBR-specific ligands and those of etazolate could be followed.

[2] = tested on: cerebellar granular cells; assay: Excitotoxicity protection in primary cerebellar granular cells (MTT test); type: cell-based, rat; conditions: etazolate three hours before toxic agents, 6-hour incubation
Description: In this example, cerebellar granular neurons, cortical neurons and ventral spinal cord cells from rats were cultured according to methods known to those skilled in the art. Seven-day-old Wistar rats were decapitated and brains were dissected. The meninges were removed and the tissue was then cut into small pieces and trypsinized for 15 minutes at 37° C. Cells were dissociated by trituration, then placed in culture at a density of 300,000 cells per cm^2 in Eagle basic medium supplemented with 10% fetal calf serum and 2 mM glutamine. The next day, 10 μM ARA-C, an antimitotic agent, was added to prevent proliferation of glial cells. The cells were treated on day 9 of culture with the inhibitor compound etazolate, three hours before adding the toxic agents 50 μM kainate or 100 μM N-methyl-D-aspartate in the presence of 10 μM D-serine. Immediately before adding the toxic agents, 8-bromo-cAMP was added. All treatments were done at least in duplicate and in at least two different cultures. After a 6-hour incubation, toxicity was measured by the MTT test. The results were normalized to the untreated mean and analyzed statistically with a Wilcoxon test. The level of significance was p≦0.05. Toxicity was measured with the MTT test. […] Absorbance at 550 nm was measured and the percentage viability was calculated.

[3] = tested on: cortical neurons; assay: Excitotoxicity protection in primary cortical neurons (MTT test); type: cell-based, rat; conditions: etazolate 1 hour before toxic agents, 6-hour incubation
Description: (§1) In this example, cerebellar granular neurons, cortical neurons and ventral spinal cord cells from rats were cultured according to methods known to those skilled in the art.
Wistar rat embryos aged 16 days were removed and the cortex dissected. After trypsination at 37° C. for 25 minutes, the cells were dissociated by trituration, then seeded in minimum essential medium supplemented with 10% horse serum, 10% fetal calf serum and 2 mM glutamine, at a density of 300,000 cells per cm^2. After 4 days of culture, half the medium was replaced with minimum essential medium supplemented with 5% horse serum and 2 mM glutamine. The same day, the antimitotic 5-fluoro-2-deoxyuridine (10 μM) was added. After 7 and 11 days of culture, half the medium was replaced with conditioned medium composed of MEM supplemented with 5% horse serum and 2 mM glutamine; prior to use this medium was passed overnight on a layer of cortical astrocytes. On day 14, the cells were treated with the inhibitor compound etazolate, 1 hour before adding the toxic agents 50 μM kainate or 20 μM N-methyl-D-aspartate in the presence of 10 μM D-serine. […] After a 6-hour incubation, toxicity was measured by the MTT test. The results were normalized to the untreated mean and analyzed statistically with a Wilcoxon test. […]
(§2) Toxicity was measured with the MTT test. […] Absorbance at 550 nm was measured and the percentage viability was calculated.

[4] = tested on: ventral spinal cord cells; assay: Excitotoxicity protection in primary ventral spinal cord cells (MTT test); type: cell-based, rat; conditions: 100 μM NMDA + 10 μM D-serine, 3-hour incubation
Description: as §1
Cells were isolated from 14-day-old Wistar rat embryos. On arrival, gestating rats were sacrificed by carbon dioxide intoxication.
The chain of embryos was removed and placed in a dish containing PBS.
The spinal cord of each embryo was dissected and the ventral cord was separated from the dorsal cords. The ventral cords were then trypsinized at 37° C. for 20 minutes. Trypsinization was stopped by addition of Leibovitz 15 medium, 20% horse serum, supplement N2 (1×), 20% glucose (3.2 mg/ml), 7.5% bicarbonate (1.8 mg/ml) and 2 mM L-glutamine. The cells were dissociated by trituration. Clumps of tissue were removed and the dissociated cells were then quantified by trypan blue staining. The cells were seeded at 250,000 cells per cm^2 in neurobasal medium containing 2% horse serum, supplement B27 (1×), and 2 mM glutamine. […] After a 3-hour incubation with NMDA/D-serine as toxic agent and a 1-hour incubation with kainate, toxicity was measured by the MTT test. The results were normalized to the untreated mean and analyzed statistically with a Wilcoxon test with p<0.05.
as §2

[5] = tested on: retinal explants from rd1 mice; assay: Retinal explant cultures from rd1 mice, histopathology of photoreceptors; type: cell-based; conditions: 2 μM etazolate, versus untreated explants
Description: This example describes the effects of a PDE4 inhibitor on retina of rd1 mice, which are characterized by a loss of visual cells starting two weeks after birth. For each etazolate concentration (0.02 μM, 0.2 μM, 2 μM and 20 μM), six retinal explants from rd1 mice were cultured for 21 days. The culture was started on postnatal day 7 in medium free of bovine fetal serum but containing etazolate at the indicated concentration. Six retinal explants from the same animals were used as controls for the treated explants. In this case, the explants were grown in culture medium alone or in culture medium containing the vehicle used for etazolate. For both conditions (control and treatment), the culture medium was changed every two days. After 21 days of culture, the explants were fixed, sectioned and labelled for histopathologic studies. Explants from untreated rd1 mice (postnatal day 28) lost most of their photoreceptors in culture, and the presence of an increase in photoreceptors was then detected by counting the remaining photoreceptors.

[6] = Escalating single oral dose study in healthy male volunteers: tolerability; type: in vivo, humans; conditions: oral capsules, single doses 0.5-20 mg
Description: (§3) In this study, increasing doses of etazolate (0.5, 1, 2, 5, 10 and 20 mg) were administered orally in the form of 0.5 and 5 mg capsules to different and sequential groups of eight young healthy male volunteers. This was a single-center, double-blind study in which two of the eight subjects received a placebo.
(§4) The following parameters were evaluated: clinical tolerability (adverse effects, clinical signs, changes in blood pressure or heart rate), electrocardiographic tolerability (recording of the ECG) and biological tolerability (hematology and blood biochemistry, urinalysis) for 24 hours after dosing. The product was assayed in plasma at different times before and after administration in each subject (0.25-0.50-1.00-1.50-2.00-3.00-4.00-5.00-6.00-8.00-10.00-12.00 and 24.00 hours). The product was also assayed in urine collected before and after administration (4, 4-8,8-12 and 12-24 hours).

[7] = Escalating single oral dose study in healthy male volunteers: plasma assays; type: in vivo; conditions: humans, at high doses
Description: as §3, §4

T1 sequence (P30536 whole entry): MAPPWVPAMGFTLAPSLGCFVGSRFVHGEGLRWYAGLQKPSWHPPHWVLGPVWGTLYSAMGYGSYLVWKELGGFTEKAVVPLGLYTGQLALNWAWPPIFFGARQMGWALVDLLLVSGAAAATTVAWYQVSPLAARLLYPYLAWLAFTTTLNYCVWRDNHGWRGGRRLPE

Structure (SMILES) | mitochondrial-specific fluorescence of rhodamine 1,2,3 [1] | protective effect on kainate-induced toxicity ([2]; 50 μM kainate) | protective effect on NMDA/serine-induced toxicity ([2]; 100 μM N-methyl-D-aspartate + 10 μM D-serine) | protective effect on NMDA/serine-induced toxicity ([3]; 20 μM N-methyl-D-aspartate + 10 μM D-serine) | protective effect on kainate-induced toxicity ([3]; 50 μM kainate) | protective effect on NMDA/serine-induced toxicity [4] | preservation of photoreceptors (photoreceptor layer) ([5]; rd1 retinal explants cultured 21 days from postnatal day 7) | number of picnotic cells ([5]; rd1 retinal explants cultured 21 days) | side effects [6] | tolerability (clinical, electrocardiographic, biological) ([6]; 24 hours after dosing) | absorption (plasma assays) [7]
CCC(C)N(C)C(=O)c1cc2ccccc2c(-c2ccccc2Cl)n1 (stereo not shown) [PK11195] | loss of fluorescence | – | – | – | – | – | – | – | – | – | –
CN1C(=O)CN=C(c2ccc(Cl)cc2)c2cc(Cl)ccc21 [Ro5-4864] | loss of fluorescence | – | – | – | – | – | – | – | – | – | –
CCOC(=O)c1cnc2c(cnn2CC)c1NN=C(C)C [etazolate] | induced the same loss of fluorescence as the PBR-specific ligands | 57% | 60% | 33% | 25% | 36% | much better preserved | marked reduction | did not cause any side effects | well tolerated | good
